Assay results from patent publication US11083737B1, “Methods of administering deflazacort therapy” (PTC Therapeutics, Inc., priority 2016, dated 2021).

Key:
[1] = Phase 1 open label pharmacokinetic study of oral deflazacort tablets (0.9 mg/kg/day, 8 days) in children and adolescents with DMD; type: in vivo, human; conditions: for geometric mean terminal elimination half-life: Day 1; for time by which plasma concentrations were quantifiable (first post-dose sample): all children and adolescents, Days 1 and 8
Procedure: FIG. 1 is a line graph illustrating mean plasma 21-desDFZ (active deflazacort metabolite) concentration (ng/mL; y-axis) vs. time (hours; x-axis) overlaid by study population on Day 8 (linear scale; circles=adolescent; triangles=child). Children (ages 5-11, inclusive) and adolescents (ages 12-16, inclusive) were administered the weight-based regimen of 0.9 mg/kg/day deflazacort orally once daily for 8 days. Blood samples were collected through eight hours post-dose. Blood samples were processed to plasma and concentrations of 21-desDFZ were measured using validated bioanalytical assays.
Pharmacokinetic analysis was performed as part of an open label, Phase 1 single-period study. Twenty-six (26) male DMD subjects were enrolled, consisting of children (ages 4 up to 12) and adolescents (ages 12 to 16, inclusive) with at least 12 subjects between the ages of 4 and 12 (children). The primary objective of the study was characterization of the single-dose and steady-state PK of deflazacort and its active deflazacort metabolite (21-desDFZ). The characterization of the PK of the 21-desDFZ metabolite 6β-OH-21-desDFZ was included as a secondary outcome. A total of 24 subjects (16 children and 8 adolescents) received deflazacort tablets (0.9 mg/kg/day) for 8 days. Blood samples for PK profiles were collected on Days 1 and 8. All 24 subjects who completed the study had sufficient data to use in the PK analysis. Plasma 21-desDFZ concentrations were quantifiable by the time of the first post-dose sample collection (0.5 hours) in all children and adolescents on Days 1 and 8. Plasma 21-desDFZ concentrations remained above the limit of quantification in most subjects over the 8-hour sampling window on both study days.

[2] = Applicants' clinical observation of deflazacort in ambulatory and non-ambulatory DMD patients; type: in vivo, human; conditions: as early as six weeks after treatment initiation, preserved up to 24-months
[3] = Day 1, deflazacort 0.9 mg/kg/day orally
[4] = Day 8, deflazacort 0.9 mg/kg/day orally
[5] = Days 1 and 8, deflazacort 0.9 mg/kg/day orally
[6] = after a single oral dose of deflazacort and at steady-state

| SMILES | geometric mean Cmax, adolescents relative to children [1, 3] | geometric mean Cmax, adolescents relative to children [1, 4] | geometric mean AUCinf, adolescents relative to children [1, 5] | geometric mean AUClast, adolescents relative to children [1, 5] | geometric mean terminal elimination half-life ([1]; adolescents) | time by which plasma concentrations were quantifiable (first post-dose sample) [1] | geometric mean terminal elimination half-life ([1]; children) | mean plasma concentration in children as percent of that observed in adolescents ([1]; about one hour following administration, Day 8, deflazacort 0.9 mg/kg/day orally) | clearance (CL/F), children vs adolescents [1, 6] | volume of distribution (Vd/F), children vs adolescents [1, 6] | muscle strength in ambulatory and non-ambulatory patients [2] |
| --- | --- | --- | --- | --- | --- | --- | --- | --- | --- | --- | --- |
| CC1=N[C@]2(C(=O)CO)[C@@H](C[C@H]3[C@@H]4C[C@@H](O)C5=CC(=O)C=C[C@]5(C)[C@H]4[C@@H](O)C[C@@]32C)O1 [6β-OH-21-desDFZ] | roughly 1.25 fold | ~1.30 fold | roughly 1.25 Fold | roughly 1.25 Fold | 1.72 h | ≤ 0.5 h | 1.63 h | – | – | – | – |
| CC1=N[C@]2(C(=O)CO)[C@@H](C[C@H]3[C@@H]4CCC5=CC(=O)C=C[C@]5(C)[C@H]4[C@@H](O)C[C@@]32C)O1 [21-desDFZ, 21-desacetyldeflazacort] | almost double | 1.5 fold | – | – | 1.34 h | ≤ 0.5 h | 1.17 h | 67% | no differences | no differences | – |
| CC(=O)OCC(=O)[C@@]12N=C(C)O[C@@H]1C[C@H]1[C@@H]3CCC4=CC(=O)C=C[C@]4(C)[C@H]3[C@@H](O)C[C@@]12C [deflazacort, (11β,16β)-21-(acetyloxy)-11-hydroxy-2′-methyl-5′H-pregna-1,4-dieno[17,16-d]oxazole-3,20-dione] | – | – | – | – | – | – | – | – | – | – | improves muscle strength |
